In US7163689B2, “Intravenous valproate for acute treatment of migraine headache” (priority 1999, dated 2007):
“And” between values parts separate entries of the source, which are not always exact repeats. Equal entries are not always repeated.

Experiments:
Format in all cases: in vivo, human
[1] = system: patients with moderate to severe migraine headaches of duration of 24 to 96 hrs; test: Pilot study: IV valproate vs IM DHE with metoclopramide for abortive treatment of acute migraine headache (Example 1); conditions: for % Headache Relief: 5 patients per group; for Headache Severity / Nausea/vomiting / Phonophobia / Photophobia: individual patient; for Headache Severity: grade 0-3; for Nausea/vomiting / Phonophobia / Photophobia: presence; for patients who had nausea / patients who had relief of phonophobia / patients who had relief of photophobia / patients with response of headache from moderate or severe to none or mild: of 5 patients
Text: This Example describes the results of a pilot study using intravenous valproate for abortive treatment of acute migraine headache. • Methods. Patients with established diagnosis of migraine with and without aura were considered for randomization to intravenous (“IV”) valproate (“VPA”) or intramuscular (“IM”) dihydroergotamine (“DHE”) with metoclopramide, also referred to herein as […]®, for patients with moderate to severe migraine headaches of duration of 24 to 96 hrs. Patients received intravenous infusion of 500 mgs of valproate over 30 mins or 1 mg DHE with 10 mgs metoclopramide IM. Headache severity, presence of nausea, phonophobia and photophobia were rated at baseline, 1 hr, 2 hrs, and 4 hrs. Table I and II. There were 5 patients in each group. • Results. Of the 5 patients receiving valproate, 4 of the 5 had response of their headaches from moderate or severe to none or mild at 1 hr, 2 hrs, and 4 hrs. Of the 5 patients receiving DHE, 3 of the 5 patients had headache response to moderate or severe to mild or none at 1 hr, 2 hrs, and 4 hrs. Table III. […] In the DHE group, 2 of 5 had nausea at baseline, and 1 had nausea at 1 hr, 2 hrs, and 4 hrs. Table IVa. […] In the DHE group, 3 of 5 had relief of photophobia at 1 hr, 4 of 5 had relief at 2 hrs and 4 hrs. […] In the DHE group, 2 of 5 had relief of phonophobia at 1 hr, and 3 of 5 had relief of phonophobia at 2 hrs and 4 hrs. Table IVb. • Conclusions. Intravenous valproate is an alternative therapy for abortive treatment of moderate to severe prolonged acute migraine headache. Anti-convulsant mechanisms may be relevant to treatment of headache symptomatology.

[2] = system: patients with prolonged moderate to severe migraine; test: Further expanded study (N=40): Depacon vs DHE preceded by metoclopramide, prolonged moderate to severe migraine (Example 3); conditions: for Headache Severity (group value, four grade rating) / Number of Patients Who Reported Nausea / Number of Patients Who Reported Phonophobia / Number of Patients Who Reported Photophobia / Responder Rate / Symptom Free patients (no headache or associated symptomatology), % / Symptom Free patients (no headache or associated symptomatology), number: N = 20 per group
Text: This Example describes a further expanded study and analysis of the effectiveness of intravenous VPA for the treatment of acute migraine headache of significant duration. Patient data from the study described in Examples 1 and 2 have been incorporated and further analyzed in addition to new patient data. • Design and Methods. Participants (N=40) were from age 14 to 74 and were established patients of the Western New England Headache Clinic. Patients called to report the pressure of prolonged moderate to severe migraine. They had no evidence of conditions other than migraine to cause headache and were medically stable. […] Patients received a neurological and general physical examination and filled out a four grade baseline headache rating from developed by Western New England Headache Clinic (see Table 2). The patients then received either 500 mg Depacon™ over 15–30 minutes administered in 100 ccs D5W, or 1 mg DHE intramuscularly preceded by 10 mg metoclopramide intramuscularly. Headache severity and associated symptomatology were rated 1, 2, and 4 hours. Results. A total of 40 patients were randomized, 20 in the Depacon™ group and 20 in the DHE group. Table VII summarizes the number of patients in each group by severity of headache (moderate or severe), demographic data and medication assignment.

[3] = system: patients with moderate to severe migraine headaches of duration of 24 to 96 hrs; test: Pilot study: IV valproate vs IM DHE with metoclopramide for abortive treatment of acute migraine headache (Example 1); conditions: individual patient, grade 0-3; 24-h
[4] = system: patients with moderate to severe headaches of 24–72 hours duration; test: Expanded study: IV VPA vs DHE with metoclopramide IM, acute migraine headache (Example 2); conditions: 24-h

CN1C[C@H](C(=O)N[C@]2(C)O[C@@]3(O)[C@@H]4CCCN4C(=O)[C@H](Cc4ccccc4)N3C2=O)C[C@@H]2c3cccc4[nH]cc(c34)C[C@H]21 [DHE, dihydroergotamine] was tested, and the “% experiencing Nausea” value ([1]; 0-h (baseline)) was 40%, the “% experiencing Photophobia” value ([1]; 0-h (baseline)) was 100% and the “% experiencing phonphobia” value ([1]; 0-h (baseline)) was 80%. The “% experiencing Nausea” value ([1]; 1-h) was 20%, the “% experiencing Photophobia” value ([1]; 1-h) was 60% and the “% experiencing phonphobia” value ([1]; 1-h) was 40%. For the same compound, the “% experiencing Nausea” value ([1]; 2-h) was 50%, the “% experiencing Photophobia” value ([1]; 2-h) was 50% and the “% experiencing phonphobia” value ([1]; 2-h) was 50%. The “% experiencing Nausea” value ([1]; 4-h) was 40%, the “% experiencing Photophobia” value ([1]; 4-h) was 40% and the “% experiencing phonphobia” value ([1]; 4-h) was 40%. The “% Headache Relief” value ([1]; 1-h) was 60%, the “% Headache Relief” value ([1]; 2-h) was 50% and the “% Headache Relief” value ([1]; 4-h) was 60%. The “Headache Severity” value ([1]; 0-h (baseline), Depacon IV 500 mg or DHE 1 mg + Reglan 10 mg) was 2 and 3 (4×), the “Headache Severity” value ([1]; 1-h) was 3 and 0 (2×) and 1 and 2 and the “Headache Severity” value ([1]; 2-h) was 3 and 0 (2×) and 2. The “Headache Severity” value ([1]; 4-h) was 3 and 1 and 0 (2×) and 2, the Nausea/vomiting ([1]; 0-h (baseline)) was 0 and the Phonophobia ([1]; 0-h (baseline)) was 0. For the same compound, the Nausea/vomiting ([1]; 1-h) was 0, the Phonophobia ([1]; 1-h) was 0 and the Photophobia ([1]; 1-h) was 0. The Nausea/vomiting ([1]; 2-h) was 0, the Phonophobia ([1]; 2-h) was 0 and the Photophobia ([1]; 2-h) was 0. For the same compound, the Nausea/vomiting ([1]; 4-h) was 0, the Phonophobia ([1]; 4-h) was 0 and the Photophobia ([1]; 4-h) was 0. It also gave a Nausea/vomiting ([1]; 24-h) of 0, a Phonophobia ([1]; 24-h) of 0 and a Photophobia ([1]; 24-h) of 0. The “patients who had nausea” value ([1]; 1 hr) was 1, the “patients who had relief of phonophobia” value ([1]; 1 hr) was 2 of 5 and the “patients who had relief of photophobia” value ([1]; 1 hr) was 3 of 5. For the same compound, the “patients with response of headache from moderate or severe to none or mild” value (from here on “patients with response of headache”) ([1]; 1 hr) was 3 of the 5, the “patients who had nausea” value ([1]; 2 hrs) was 1 and the “patients who had relief of phonophobia” value ([1]; 2 hrs) was 3 of 5. The “patients who had relief of photophobia” value ([1]; 2 hrs) was 4 of 5, the “patients with response of headache” value ([1]; 2 hrs) was 3 of the 5 and the “patients who had nausea” value ([1]; 4 hrs) was 1. The “patients who had relief of phonophobia” value ([1]; 4 hrs) was 3 of 5, the “patients who had relief of photophobia” value ([1]; 4 hrs) was 4 of 5 and the “patients with response of headache” value ([1]; 4 hrs) was 3 of the 5. The “patients who had nausea” value ([1]; baseline) was 2 of 5, the “% of Patients Who Reported Nausea” value ([2]; 1 hour) was 42% and the “% of Patients Who Reported Phonophobia” value ([2]; 1 hour) was 67%. The “% of Patients Who Reported Photophobia” value ([2]; 1 hour) was 75%, the “% of Patients Who Reported Nausea” value ([2]; 2 hours) was 50% and the “% of Patients Who Reported Phonophobia” value ([2]; 2 hours) was 67%. The “% of Patients Who Reported Photophobia” value ([2]; 2 hours) was 65%, the “% of Patients Who Reported Nausea” value ([2]; 4 hours) was 50% and the “% of Patients Who Reported Phonophobia” value ([2]; 4 hours) was 61%. For the same compound, the “% of Patients Who Reported Photophobia” value ([2]; 4 hours) was 55%, the “% of Patients Who Reported Nausea” value ([2]; Baseline) was “(60%)” and the “% of Patients Who Reported Phonophobia” value ([2]; Baseline) was 90%. For the same compound, the “% of Patients Who Reported Photophobia” value ([2]; Baseline) was 100%, the “Headache Severity (group value, four grade rating)” value ([2]; 1 hour) was 1.5 and the “Number of Patients Who Reported Nausea” value ([2]; 1 hour) was 5. For the same compound, the “Number of Patients Who Reported Phonophobia” value ([2]; 1 hour) was 12, the “Number of Patients Who Reported Photophobia” value ([2]; 1 hour) was 15 and the “Responder Rate” value ([2]; 1 hour) was 45%. For the same compound, the “Headache Severity (group value, four grade rating)” value ([2]; 2 hours) was 1.4, the “Number of Patients Who Reported Nausea” value ([2]; 2 hours) was 6 and the “Number of Patients Who Reported Phonophobia” value ([2]; 2 hours) was 12. For the same compound, the “Number of Patients Who Reported Photophobia” value ([2]; 2 hours) was 13, the “Responder Rate” value ([2]; 2 hours) was 50% and the “Headache Severity (group value, four grade rating)” value ([2]; 4 hours) was 1.2. The “Number of Patients Who Reported Nausea” value ([2]; 4 hours) was 6, the “Number of Patients Who Reported Phonophobia” value ([2]; 4 hours) was 11 and the “Number of Patients Who Reported Photophobia” value ([2]; 4 hours) was 11. For the same compound, the “Responder Rate” value ([2]; 4 hours) was 60%, the “Headache Severity (group value, four grade rating)” value ([2]; Baseline) was 2.6 and the “Number of Patients Who Reported Nausea” value ([2]; Baseline) was “DHE 12”. For the same compound, the “Number of Patients Who Reported Phonophobia” value ([2]; Baseline) was 18, the “Number of Patients Who Reported Photophobia” value ([2]; Baseline) was 20 and the “Symptom Free patients (no headache or associated symptomatology), %” value ([2]; at 1 hour) was 15%. The “Symptom Free patients (no headache or associated symptomatology), number” value ([2]; at 1 hour) was 3, the “Symptom Free patients (no headache or associated symptomatology), %” value ([2]; at 2 hours) was 25% and the “Symptom Free patients (no headache or associated symptomatology), number” value ([2]; at 2 hours) was 5. For the same compound, the “Symptom Free patients (no headache or associated symptomatology), %” value ([2]; at 4 hours) was 30%, the “Symptom Free patients (no headache or associated symptomatology), number” value ([2]; at 4 hours) was 6 and the “Headache Severity” value [3] was 1 (2×) and 0 and 2. For the same compound, the “% experiencing Photophobia” value [4] was 20% and the Photophobia ([4]; individual patient, presence) was 0.
